Where a name gives a salt, the structure may show the parent alone.
What was measured:
[1] = tested on: epileptics and individuals with bipolar disorders; details: per day; usual minimum anti-convulsant dose; cited from earlier work
[2] = tested on: patients who had symptoms of ADHD; assay: Clinical study with anti-epileptic mood stabilisers alone in patients with symptoms of ADHD (Example 3); type: in vivo, human; details: for patient-reported improvements (self and other rating scales, clinical assessments): monotherapy without stimulant, topiramate 12.5-50 mg/day, Phenytoin 30-60 mg/day, valproate same dose range as combined treatment
From the text: The improvements assessed using self and other rating scales objective psychometric tool together with repeated clinical assessments.

ADHD patients = tested on: ADHD patients
Protocol: A. Topiramate in Combination with Dexamphetamine (n=11)
The third trial clinical has been with phenytoin and a psychostimulant (n=8). Phenytoin is less often used for its psychoactive properties than either valproate or topiramate. […] The assessment methods were as per the trials with valproate and topiramate.
C. Phenytoin in Combination with Dexamphetamine (n=6)
E. Sodium Valproate in Combination with Methylphenidate (n=4) • Sodium Valproate: average 1.6 mg/kg/day (130 mg/day) • Methylphenidate: average 1.2 mg/kg/day (84 mg/day)

adults with ADHD = tested on: adults with ADHD
Protocol: The initial dosages used were from 15 to 70 mg/day of dexamphetamine and from 100 to 700 mg/day of VPA (Epilim) (=approximately 2 to 10 mg/kg/day).
The determination of the dose for the dexamphetamine was undertaken in a clinical sensitive open label manner. The dose was titrated upwards dependent on the clinical response and the freedom from side-effects. The dose range was between 15 and 70 mg a day. The frequency of the dosing also varied dependent upon the clinical response. The usual dose interval was between two to four hours. This dosing adjustment took place prior to the commencement of the sodium valproate. The sodium valproate medication was initiated once a day at 50 mg tablet or elixir and titrated upwards dependent on response, but not more than one increase every three days. The dose was given as a once or twice a day regime. During the titration phase, if clinically possible, no other adjustments to the pharmacotherapy were undertaken.
The dosages of sodium valproate, after adjustment, varied between 50 mg/day, 100 mg/day, 150 mg/day or 200 mg/day (number of patients—120), with the majority of patients receiving between 50 to 150 mg/day with […] usually the maximum.
The results were assessed using the Conners Adult ADHD Rating scales completed by the patient and observer (usually partner or parent). In a sample of 26 patients who completed self CAARS rating scales at; pre treatment, stable on stimulant and stable on anti-epileptic drug (AED).

[3] = tested on: patients with a diagnosis of GAD; assay: Treatment of Generalised Anxiety Disorder (GAD) with low dose AED (Example 5); type: in vivo, human; details: 50 to 150 mg, without co-administration of a stimulant
Protocol: The diagnostic criteria cited for inclusion in this study included reference to excessive anxiety and worry which had been present for at least 6 months and which was difficult to control and associated with difficulty concentrating, becoming easily fatigued, restlessness or feeling keyed up or on edge and sleep disturbance. […] The medication was well tolerated with few side effects at the dose given. The improvement was evaluated using self and observer rating scales together with clinician review. As in the ADHD trials response usually commenced within 3-7 days. Due to the robust and persistent benefit, six months at the time of writing, many of the other psychotropic medications were reduced or even ceased.

[4] = low dose sodium valproate with dexamphetamine

| Structure (SMILES) | Minimum Dose/day effective for mood stabilisation [1] | also measured |
| --- | --- | --- |
| CCC1(c2ccccc2)C(=O)NC(=O)NC1=O.CNC(C)CC1CCCCC1 [Barbexaclone] | 200 mg in divided doses | – |
| NC(=O)N1c2ccccc2C=Cc2ccccc21 [Carbamazepine, (Z)-5H-dibenzo[b,f]azepine-5-carboxamide] | 400 mg | – |
| CN1C(=O)CC(=O)N(c2ccccc2)c2cc(Cl)ccc21 [Clobazam] | 5 mg/kg daily | – |
| O=C1CN=C(c2ccccc2Cl)c2cc([N+](=O)[O-])ccc2N1 [Clonazepam] | 1 mg | – |
| CCN1C(=O)OC(C)(C)C1=O [Ethadione] | 1000 mg | – |
| CCC1(C)CC(=O)NC1=O (centres unmarked) [Ethosuximide] | 1000 mg | – |
| CCN1C(=O)NC(c2ccccc2)C1=O (centres unmarked) [Ethotoin, 3-ethyl-5-phenyl-imidazolidine-2,4-dione] | 1000 mg | – |
| NC(=O)OCC(COC(N)=O)c1ccccc1 [Felbamate] | 1200 mg | – |
| O=C1NC(c2ccccc2)(c2ccccc2)C(=O)N1COP(=O)(O)O [Fosphenytoin Sodium] | 10 mg/kg | – |
| NCC1(CC(=O)O)CCCCC1 [Gabapentin, 2-[1-(aminomethyl)cyclohexyl]acetic acid] | 900 mg | – |
| Nc1nnc(-c2cccc(Cl)c2Cl)c(N)n1 [Lamotrigine] | 100 mg | – |
| CC[C@@H](C(N)=O)N1CCCC1=O [Levetiracetam] | 1000 mg | – |
| COC1=CC(=O)OC1C(O)c1ccccc1Cl (centres unmarked) [Losigamone] | 1500 mg | – |
| CCC1(c2ccccc2)NC(=O)N(C)C1=O (centres unmarked) [Mephenytoin] | 200 mg | – |
| NC(=O)N1c2ccccc2CC(=O)c2ccccc21 [Oxcarbazepine, 10,11-Dihydro-10-oxo-5H-dibenz[b,f]azepine-5-carboxamide] | 600 mg | – |
| CCC(C(=O)NC(N)=O)c1ccccc1 (centres unmarked) [Pheneturide] | 600 mg | – |
| O=C1NC(=O)C(c2ccccc2)(c2ccccc2)N1 [Phenytoin, 5,5-diphenylimidazolidine-2,4-dione] | 200 mg | patient-reported improvements (self and other rating scales, clinical assessments) [2]: improvements in the organisation of thoughts in conversation and reading comprehension; overall effect and tolerability (ADHD patients; phenytoin at low dose with a psychostimulant, n=8): robust and well tolerated effect in eight patients |
| CC(C)C[C@H](CN)CC(=O)O [Pregabalin, (S)-3-(aminomethyl)-5-methylhexanoic acid] | 300 mg | – |
| CCC1(c2ccccc2)C(=O)NCNC1=O [Primidone] | 750 mg | – |
| NC(=O)c1cn(Cc2c(F)cccc2F)nn1 [Rufinamide] | 400 mg | – |
| NS(=O)(=O)c1ccc(N2CCCCS2(=O)=O)cc1 [Sultiame] | 200 mg | – |
| Cc1ccsc1C(=CCCN1CCC[C@H](C(=O)O)C1)c1sccc1C [Tiagabine Hydrochloride, (3S)-1-[4,4-bis(3-methylthiophen-2-yl)but-3-enyl]piperidine-3-carboxylic acid] | 30 mg | – |
| CC1(C)O[C@@H]2[C@@H](CO[C@@]3(COS(N)(=O)=O)OC(C)(C)O[C@@H]23)O1 [Topiramate, 2,3:4,5-Bis-O-(1-methylethylidene)-beta-D-fructopyranose sulfamate] | 100 mg | patient-reported improvements (self and other rating scales, clinical assessments) [2]: improvements in the organisation of thoughts in conversation and reading comprehension; effect on coordination, organisation and motivation ([2]; topiramate alone 12.5-50 mg/day): effect on coordination, as well as improved organisation and motivation; tolerability at initial titration (ADHD patients; 25 mg increasing to 125 mg daily, with stimulant): intolerable side effects and ceasing of medication; Conners' Adult ADHD Rating scales (self and observer), DEM, clinician interview (ADHD patients; re-titration commencing at 6.25 or 12.5 mg, with stimulant): significant improvements |
| C=CC(N)CCC(=O)O (centres unmarked) [Vigabatrin] | 1000 mg | – |
| NS(=O)(=O)Cc1noc2ccccc12 [Zonisamide] | 200 mg | – |
| CCCC(CCC)C(=O)O.[Na] [sodium valproate, sodium di-n-propylacetic acid] | – | psychosocial functioning (patient description, clinical review) (adults with ADHD; VPA added to dexamphetamine, dose below that for bipolar disorder): overall improvement in psychosocial functioning; adverse effect at higher dosages (adults with ADHD; in vivo): general cognitive and a resultant loss of efficacy; adverse effect at higher doses (adults with ADHD; in vivo): general cognitive slowing and the resultant loss of efficacy; oculomotor function, Developmental Eye Movement Test (DEM) (adults with ADHD; [4]): has shown improvement; reading and verbal comprehension abilities (patient report) (adults with ADHD; [4]): improvement in their reading and verbal comprehension abilities; patient-reported improvements (self and other rating scales, clinical assessments) [2]: improvements in the organisation of thoughts in conversation and reading comprehension; function and symptoms in Generalised Anxiety Disorder [3]: sustained improvement in function and a reduction in symptoms |

Source: US9649297B2, “Treatment of ADHD” (Gosforth Centre (Holdings) Pty Ltd., priority 2007, dated 2017)
